# According to patent US20260102460A1, “NOVEL COMBINATIONS OF ANTIBIOTICS AND NON-ANTIBIOTIC DRUGS EFFECTIVE IN VIVO AGAINST GRAM-POSITIVE BACTERIA, IN PARTICULAR METHICILLIN-RESISTANT S. AUREUS (MRSA)” (EUROPEAN MOLECULAR BIOLOGY LABORATORY, priority 2022, published 2026):
# Entries after “also recorded” stand apart in the source; their conditions may differ.
# Columns and labels:
# [1] = test system: MRSA clinical isolates; test: 8×8 broth microdilution checkerboard assays; assay type: cell-based, Staphylococcus aureus; conditions: MSSA and MRSA
# Source text: (§1) Drug interaction networks in S. aureus, with drugs grouped according to their class (a) or targeted cellular process (b). Unique interactions across both strains tested are considered (i=331). Edge thickness represents the proportion of interactions for each node pair, considering all possible interactions given the number of drugs in each node. Nodes depict the drug class (a) or the targeted cellular process (b), and size is proportional to the number of drugs in the represented class/process. Only interacting drugs are considered (d=62). Synergies, antagonisms and nodes are colored according to FIG. 1. c. Novel and previously reported interactions detected in S. aureus. Interactions are considered known if reported in any S. aureus strain (Supplementary Table 4). d-e. Novel synergies are effective against MRSA clinical isolates in vitro (d) and in vivo in the G. mellonella infection model (e). […] The percentage of surviving larvae after treatment and in the untreated controls was monitored over time. […]
# Combinations were tested in the same experimental conditions as for the screen, but at higher concentration resolution: drugs were diluted in eight concentrations spanning linearly-space gradients to assemble 8×8 checkerboards for each combination tested. […] Data was analyzed with the same pipeline as for the screen (Methods).
# [2] = test system: MRSA; test: G. mellonella infection model, drug combination therapy; assay type: in vivo, Galleria mellonella; conditions: G. mellonella infected with MRSA isolate resistant to tigecycline, gentamicin 2 μg/ml, ticagrelor 100 μg/ml (FIG. 5e)
# Source text: as §1
# Larvae of the greater wax moth (Galleria mellonella) at their final instar larval stage were used for evaluation of selected drug combinations to assess their efficacy against MRSA in vivo. […] The survival of Galleria larvae was monitored at the indicated time points by two observers independently. Each strain-drug combination was evaluated in three independent experiments.
# [3] = test system: S. aureus Newman; test: Two-dimensional thermal proteome profiling (2D-TPP), whole cell and lysate; assay type: cell-based, Staphylococcus aureus; conditions: for thermal stability of ATP- and GTP-binding enzymes and transporters: ticagrelor 0.04-4 μg/ml
# [4] = test system: S. aureus Newman; test: Ticagrelor MIC upon purine supplementation; assay type: cell-based, Staphylococcus aureus; conditions: supplementation with adenosine, inosine or their combination; SSM9PR medium with 1% glucose
# Description: MICs were tested in all strains for the main screen. Drugs were two-fold serially diluted in 11 concentrations, and 32 no-drug control wells were included in each plate. Experiments were conducted in 384-well plates (ref. 781271 by Greiner BioOne), with a total volume of 30 μl for S. aureus and B. subtilis and 55 μl for S. pneumoniae. Volumes were optimized for each strain to achieve good dynamic range for growth and minimize risk of cross-contamination between wells. Plates were inoculated with a starting optical density at 595 nm (OD595 nm) of 0.01 from an overnight culture. All liquid handling was performed using a Biomek FX liquid handler (Beckman Coulter). Plates were sealed with breathable membranes and incubated at 37° C. OD595 nm was measured every 30 minutes for 14 hours. The MIC was considered as the first concentration at which growth was inhibited. Experiments were conducted in biological duplicates. For the adjuvant screen, antibiotics were tested in S. aureus DSM 20231 at the same concentrations as for the main screen. Non-antibiotics concentrations were selected to fall within therapeutic ranges.
# Ticagrelor (ref. SML2482, Sigma-Aldrich) MIC was measured upon purine supplementation in S. aureus Newman as described above in SSM9PR minimal medium supplemented with 1% glucose79, in 384-well plates (ref. 781271 by Greiner BioOne) with a final volume of 30 μl. […]
structure (smiles),measurement,setting,value
CCCSc1nc(N[C@@H]2C[C@H]2c2ccc(F)c(F)c2)c2nnn([C@@H]3C[C@H](OCCO)[C@@H](O)[C@H]3O)c2n1 [ticagrelor],interaction with gentamicin at growth inhibition level,"[1]; MRSA isolate resistant to tigecycline (FIG. 5c), ticagrelor combined with gentamicin",sensitized; also recorded: synergizes
same,sensitization to cationic peptide nisin,[1]; ticagrelor combined with nisin,sensitized
same,interaction with gentamicin in vivo (survival of infected larvae),[2],evident
same,interaction with gentamicin in vivo (survival of infected larvae),[2]; listed as Ticagrelor,synergizes
same,"abundance of purine biosynthesis enzymes (PurC, PurD, PurE, PurF, PurK, PurL, PurM, PurN, PurQ)",[3]; live cells,induction
same,thermal stability of DltC and DltD (LTA D-alanylation),[3]; lysate,destabilized
same,"thermal stability of ClfA, ClfB, coagulase Coa and vWBP","[3]; lysate, clinically-relevant ticagrelor concentration",destabilization
same,thermal stability of ATP- and GTP-binding enzymes and transporters,[3]; lysate,destabilization
same,thermal stability of TagG (WTA translocase subunit),[3]; whole cell sample,destabilized
same,thermal stability of ATP- and GTP-binding enzymes and transporters,[3]; whole cell,destabilization
same,"abundance of ClfA, ClfB, coagulase Coa and vWBP","[3]; whole-cell samples, clinically-relevant ticagrelor concentration",downregulation
same,change of MIC upon purine supplementation,[4],increased
